US12077503B2, “Substituted cyclic amides and their use as herbicides” (FMC CORPORATION, priority 2015, dated 2024)

Experiments:
Assay type in all cases: in vivo
corn (Zea mays) [1] = assay: Test G Post-Emergence Protocol; settings: Zea mays, post-emergence, 312 h, read-out: Corn damage rating; for plant injury at 15.625 g/ha: 15.625 g ai/ha, evaluated after 13 days (100=total damage to plant; 0=no damage to plant); for plant injury at 62.5 g/ha: 62.5 g ai/ha; for plant injury at 62.5 g/ha / plant injury at 250 g/ha: evaluated after 13 days, 100=total damage to plant, 0=no damage to plant; for plant injury at 250 g/ha: 250 g ai/ha
Procedure, shortened: (§1)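 Scores run 0 (no damage) to 100 (total damage) and were taken 13 days after spraying. Plants had been raised in pots for 8 days under glasshouse control (24/16 °C, 14 h photoperiod, 65% humidity) and then treated at 15.625, 62.5 or 250 g/ha.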

[2] = tested on: giant foxtail (Setaria faberi); assay: Test G Post-Emergence Protocol; settings: Setaria faberi, post-emergence, 312 h, read-out: Foxtail, Giant damage rating; for pest or weed control at 15.625 g/ha: 15.625 g ai/ha, evaluated after 13 days (100=total damage to plant; 0=no damage to plant); for pest or weed control at 62.5 g/ha: 62.5 g ai/ha; for pest or weed control at 62.5 g/ha / pest or weed control at 250 g/ha: evaluated after 13 days, 100=total damage to plant, 0=no damage to plant; for pest or weed control at 250 g/ha: 250 g ai/ha
Procedure, shortened: as §1

[3] = tested on: velvetleaf (Abutilon theophrasti); assay: Test G Post-Emergence Protocol; settings: Abutilon theophrasti, post-emergence, 312 h, read-out: Velvetleaf damage rating; for pest or weed control at 15.625 g/ha: 15.625 g ai/ha, evaluated after 13 days (100=total damage to plant; 0=no damage to plant); for pest or weed control at 62.5 g/ha: 62.5 g ai/ha; for pest or weed control at 62.5 g/ha / pest or weed control at 250 g/ha: evaluated after 13 days, 100=total damage to plant, 0=no damage to plant; for pest or weed control at 250 g/ha: 250 g ai/ha
Procedure, shortened: as §1

[4] = tested on: barnyardgrass (Echinochloa crus-galli); assay: Test G Post-Emergence Protocol; settings: Echinochloa crus-galli, post-emergence, 312 h, read-out: Barnyardgrass damage rating; for pest or weed control at 15.625 g/ha: 15.625 g ai/ha, evaluated after 13 days (100=total damage to plant; 0=no damage to plant); for pest or weed control at 62.5 g/ha: 62.5 g ai/ha; for pest or weed control at 62.5 g/ha / pest or weed control at 250 g/ha: evaluated after 13 days, 100=total damage to plant, 0=no damage to plant; for pest or weed control at 250 g/ha: 250 g ai/ha
Procedure, shortened: as §1

[5] = tested on: ivy-leaved morning glory (Ipomoea hederacea); assay: Test G Post-Emergence Protocol; settings: Ipomoea, post-emergence, 312 h, read-out: Morningglory, Ivy-leaved damage rating; for pest or weed control at 15.625 g/ha: 15.625 g ai/ha, evaluated after 13 days (100=total damage to plant; 0=no damage to plant); for pest or weed control at 62.5 g/ha: 62.5 g ai/ha; for pest or weed control at 62.5 g/ha / pest or weed control at 250 g/ha: evaluated after 13 days, 100=total damage to plant, 0=no damage to plant; for pest or weed control at 250 g/ha: 250 g ai/ha
Procedure, shortened: as §1

[6] = tested on: redroot pigweed (Amaranthus retroflexus); assay: Test G Post-Emergence Protocol; settings: Amaranthus retroflexus, post-emergence, 312 h, read-out: Pigweed, Redroot damage rating; for pest or weed control at 15.625 g/ha: 15.625 g ai/ha, evaluated after 13 days (100=total damage to plant; 0=no damage to plant); for pest or weed control at 62.5 g/ha: 62.5 g ai/ha; for pest or weed control at 62.5 g/ha / pest or weed control at 250 g/ha: evaluated after 13 days, 100=total damage to plant, 0=no damage to plant; for pest or weed control at 250 g/ha: 250 g ai/ha
Procedure, shortened: as §1

corn (Zea mays) [7] = assay: Test G Pre-Emergence Protocol; settings: Zea mays, pre-emergence, 312 h, evaluated after 13 days; for plant injury at 15.625 g/ha: 15.625 g ai/ha; for plant injury at 15.625 g/ha / plant injury at 250 g/ha: read-out: Corn damage rating (100=total damage to plant; 0=no damage to plant); for plant injury at 62.5 g/ha: 62.5 g ai/ha, 100=total damage to plant, 0=no damage to plant, read-out: Corn damage rating; for plant injury at 250 g/ha: 250 g ai/ha
Procedure, shortened: (§2)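 Herbicidal effect was rated 13 days post-application on a scale where 100 equals total damage. Spraying took place the day after sowing, using 15.625, 62.5 or 250 g/ha of compound in a 50:50 acetone/water solution with 0.5% Tween 20.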

[8] = tested on: giant foxtail (Setaria faberi); assay: Test G Pre-Emergence Protocol; settings: Setaria faberi, pre-emergence, 312 h, evaluated after 13 days; for pest or weed control at 15.625 g/ha: 15.625 g ai/ha; for pest or weed control at 15.625 g/ha / pest or weed control at 250 g/ha: read-out: Foxtail, Giant damage rating (100=total damage to plant; 0=no damage to plant); for pest or weed control at 62.5 g/ha: 62.5 g ai/ha, 100=total damage to plant, 0=no damage to plant, read-out: Foxtail, Giant damage rating; for pest or weed control at 250 g/ha: 250 g ai/ha
Procedure, shortened: as §2

[9] = tested on: velvetleaf (Abutilon theophrasti); assay: Test G Pre-Emergence Protocol; settings: Abutilon theophrasti, pre-emergence, 312 h, evaluated after 13 days; for pest or weed control at 15.625 g/ha: 15.625 g ai/ha; for pest or weed control at 15.625 g/ha / pest or weed control at 250 g/ha: read-out: Velvetleaf damage rating (100=total damage to plant; 0=no damage to plant); for pest or weed control at 62.5 g/ha: 62.5 g ai/ha, 100=total damage to plant, 0=no damage to plant, read-out: Velvetleaf damage rating; for pest or weed control at 250 g/ha: 250 g ai/ha
Procedure, shortened: as §2

[10] = tested on: barnyardgrass (Echinochloa crus-galli); assay: Test G Pre-Emergence Protocol; settings: Echinochloa crus-galli, pre-emergence, 312 h, evaluated after 13 days; for pest or weed control at 15.625 g/ha: 15.625 g ai/ha; for pest or weed control at 15.625 g/ha / pest or weed control at 250 g/ha: read-out: Barnyardgrass damage rating (100=total damage to plant; 0=no damage to plant); for pest or weed control at 62.5 g/ha: 62.5 g ai/ha, 100=total damage to plant, 0=no damage to plant, read-out: Barnyardgrass damage rating; for pest or weed control at 250 g/ha: 250 g ai/ha
Procedure, shortened: as §2

[11] = tested on: ivy-leaved morning glory (Ipomoea hederacea); assay: Test G Pre-Emergence Protocol; settings: Ipomoea, pre-emergence, 312 h, evaluated after 13 days; for pest or weed control at 15.625 g/ha: 15.625 g ai/ha; for pest or weed control at 15.625 g/ha / pest or weed control at 250 g/ha: read-out: Morningglory, Ivy-leaved damage rating (100=total damage to plant; 0=no damage to plant); for pest or weed control at 62.5 g/ha: 62.5 g ai/ha, 100=total damage to plant, 0=no damage to plant, read-out: Morningglory, Ivy-leaved damage rating; for pest or weed control at 250 g/ha: 250 g ai/ha
Procedure, shortened: as §2

[12] = tested on: redroot pigweed (Amaranthus retroflexus); assay: Test G Pre-Emergence Protocol; settings: Amaranthus retroflexus, pre-emergence, 312 h, evaluated after 13 days; for pest or weed control at 15.625 g/ha: 15.625 g ai/ha; for pest or weed control at 15.625 g/ha / pest or weed control at 250 g/ha: read-out: Pigweed, Redroot damage rating (100=total damage to plant; 0=no damage to plant); for pest or weed control at 62.5 g/ha: 62.5 g ai/ha, 100=total damage to plant, 0=no damage to plant, read-out: Pigweed, Redroot damage rating; for pest or weed control at 250 g/ha: 250 g ai/ha
Procedure, shortened: as §2

Row | SMILES | plant injury at 15.625 g/ha (corn (Zea mays) [1]) [%] | plant injury at 62.5 g/ha (corn (Zea mays) [1]) [%] | plant injury at 250 g/ha (corn (Zea mays) [1]) [%] | pest or weed control at 15.625 g/ha [2] [%] | pest or weed control at 62.5 g/ha [2] [%] | pest or weed control at 250 g/ha [2] [%] | pest or weed control at 15.625 g/ha [3] [%] | pest or weed control at 62.5 g/ha [3] [%] | pest or weed control at 250 g/ha [3] [%] | pest or weed control at 15.625 g/ha [4] [%] | pest or weed control at 62.5 g/ha [4] [%] | pest or weed control at 250 g/ha [4] [%] | pest or weed control at 15.625 g/ha [5] [%] | pest or weed control at 62.5 g/ha [5] [%] | pest or weed control at 250 g/ha [5] [%] | pest or weed control at 15.625 g/ha [6] [%] | pest or weed control at 62.5 g/ha [6] [%] | pest or weed control at 250 g/ha [6] [%] | plant injury at 15.625 g/ha (corn (Zea mays) [7]) [%] | plant injury at 62.5 g/ha (corn (Zea mays) [7]) [%] | also measured
1 | CCOc1cc(C2CN(C)C(=O)C2C(=O)Nc2cccc(F)c2F)cc(C(F)(F)F)c1 (stereo not drawn) [Compound 1696] | 50 | 70 | 70 | 70 | 80 | 80 | 0 | 0 | 10 | 40 | 70 | 80 | 20 | 60 | 60 | 70 | 50 | 60 | 0 | 40 | plant injury at 250 g/ha (corn (Zea mays) [7]): 50%; pest or weed control at 15.625 g/ha [8]: 60%; pest or weed control at 62.5 g/ha [8]: 80%; pest or weed control at 250 g/ha [8]: 90%; pest or weed control at 15.625 g/ha [9]: 10%; pest or weed control at 62.5 g/ha [9]: 0%; pest or weed control at 250 g/ha [9]: 0%; pest or weed control at 15.625 g/ha [10]: 10%; pest or weed control at 62.5 g/ha [10]: 70%; pest or weed control at 250 g/ha [10]: 80%; pest or weed control at 15.625 g/ha [11]: 10%; pest or weed control at 62.5 g/ha [11]: 10%; pest or weed control at 250 g/ha [11]: 20%; pest or weed control at 15.625 g/ha [12]: 20%; pest or weed control at 62.5 g/ha [12]: 0%; pest or weed control at 250 g/ha [12]: 20%
2 | COc1c(F)cc(C2CN(C)C(=O)C2C(=O)Nc2cccc(F)c2F)cc1F (stereo not drawn) [Compound 1702] | 20 | 20 | 80 | 70 | 80 | 80 | 10 | 20 | 70 | 60 | 70 | 80 | 10 | 60 | 70 | 10 | 10 | 40 | 20 | 70 | plant injury at 250 g/ha (corn (Zea mays) [7]): 90%; pest or weed control at 15.625 g/ha [8]: 70%; pest or weed control at 62.5 g/ha [8]: 80%; pest or weed control at 250 g/ha [8]: 90%; pest or weed control at 15.625 g/ha [9]: 0%; pest or weed control at 62.5 g/ha [9]: 10%; pest or weed control at 250 g/ha [9]: 70%; pest or weed control at 15.625 g/ha [10]: 50%; pest or weed control at 62.5 g/ha [10]: 70%; pest or weed control at 250 g/ha [10]: 90%; pest or weed control at 15.625 g/ha [11]: 0%; pest or weed control at 62.5 g/ha [11]: 30%; pest or weed control at 250 g/ha [11]: 40%; pest or weed control at 15.625 g/ha [12]: 0%; pest or weed control at 62.5 g/ha [12]: 0%; pest or weed control at 250 g/ha [12]: 50%
3 | CN1CC(c2cc(F)c(Cl)c(F)c2)C(C(=O)Nc2cccc(F)c2F)C1=O (stereo not drawn) [Compound 1703] | 0 | 0 | 80 | 70 | 70 | 80 | 10 | 40 | 70 | 50 | 70 | 80 | 60 | 60 | 60 | 20 | 60 | 80 | 0 | 60 | plant injury at 250 g/ha (corn (Zea mays) [7]): 80%; pest or weed control at 15.625 g/ha [8]: 80%; pest or weed control at 62.5 g/ha [8]: 80%; pest or weed control at 250 g/ha [8]: 90%; pest or weed control at 15.625 g/ha [9]: 0%; pest or weed control at 62.5 g/ha [9]: 0%; pest or weed control at 250 g/ha [9]: 30%; pest or weed control at 15.625 g/ha [10]: 50%; pest or weed control at 62.5 g/ha [10]: 80%; pest or weed control at 250 g/ha [10]: 80%; pest or weed control at 15.625 g/ha [11]: 0%; pest or weed control at 62.5 g/ha [11]: 0%; pest or weed control at 250 g/ha [11]: 40%; pest or weed control at 15.625 g/ha [12]: 0%; pest or weed control at 62.5 g/ha [12]: 0%; pest or weed control at 250 g/ha [12]: 10%
